Measured values reported in US20240109937A1, “BINDING PEPTIDES AND USES THEREOF” (The Johns Hopkins University, priority 2021, published 2024).

Columns and labels:
CAPN1 [1] = biological target: T1, CAPN1 (Mus musculus, UniProt O35350); assay: Western blot of CAPN1 in purified mitochondria from HL-1 cells under Ca2+ overload; format: cell-based; settings: Ca2+ overload (HBS KVC), calpeptin 50 μM, PD150606 10 μM
T1 construct: endogenous in cells; host or cells: HL-1 cardiomyocytes
T1 sequence (O35350 1-713): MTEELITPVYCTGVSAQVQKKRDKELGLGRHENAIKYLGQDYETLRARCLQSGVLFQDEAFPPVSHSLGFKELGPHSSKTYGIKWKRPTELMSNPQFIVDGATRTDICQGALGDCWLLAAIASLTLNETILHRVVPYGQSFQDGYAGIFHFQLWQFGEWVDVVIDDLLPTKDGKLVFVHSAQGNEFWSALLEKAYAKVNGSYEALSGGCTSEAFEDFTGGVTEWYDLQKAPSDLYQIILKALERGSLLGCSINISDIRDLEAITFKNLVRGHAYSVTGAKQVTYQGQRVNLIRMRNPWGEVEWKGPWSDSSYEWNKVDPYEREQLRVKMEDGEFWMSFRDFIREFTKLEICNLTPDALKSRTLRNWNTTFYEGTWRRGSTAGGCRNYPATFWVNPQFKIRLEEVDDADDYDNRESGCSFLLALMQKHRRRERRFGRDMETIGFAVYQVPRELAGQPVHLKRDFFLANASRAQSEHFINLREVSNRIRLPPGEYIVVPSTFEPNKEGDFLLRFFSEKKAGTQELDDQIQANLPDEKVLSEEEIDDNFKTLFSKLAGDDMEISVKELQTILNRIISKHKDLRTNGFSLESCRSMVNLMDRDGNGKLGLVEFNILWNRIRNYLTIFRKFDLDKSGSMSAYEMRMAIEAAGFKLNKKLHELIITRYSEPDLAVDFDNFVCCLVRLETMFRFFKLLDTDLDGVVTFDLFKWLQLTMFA
T1 sequence (O88456 1-268 partner): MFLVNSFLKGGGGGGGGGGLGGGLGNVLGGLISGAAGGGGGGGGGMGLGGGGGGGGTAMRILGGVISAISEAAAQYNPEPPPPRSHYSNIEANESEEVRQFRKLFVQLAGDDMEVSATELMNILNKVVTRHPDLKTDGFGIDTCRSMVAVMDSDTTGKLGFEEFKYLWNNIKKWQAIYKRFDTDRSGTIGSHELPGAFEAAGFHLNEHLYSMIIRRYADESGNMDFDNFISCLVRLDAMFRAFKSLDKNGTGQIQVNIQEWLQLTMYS
Experimental: Calcium (Ca^2+) Overload Protocol: Rapid and sustained intracellular Ca^2+ overload was obtained by adding the Ca^2+-ionophore, calcimycin (1 μM), to HL-1 cells incubated for 10 min in HBS KV medium (1.26 mM CaCl2, 0.81 mM MgSO4, 0.44 mM KH2PO4, 142 mM KCl, 0.27 mM K2HPO4, 5.55 mM D-glucose, 1 mM Na3VO4, 20 mM Hepes pH 7.4). To monitor intracellular Ca^2+ variations, HL-1 cells were loaded with 5 μM Fluo-4 FF AM (Molecular Probes) in HBS Na (Sigma) for 30 min before the media was replaced with HBS KV. The fluorescence was recorded using a fluorimeter plate reader (Fluoroskan Ascent Labsystem) at wavelength settings of 485/530 nm for excitation/emission, respectively.
Mitochondria Isolation Protocol: Mitochondria were isolated from HL-1 cells in percoll density gradient. Briefly, 30×10^6 adherent cells were harvested with Trypsin/EDTA, centrifuged at 500×g for 10 min, washed in buffer A (100 mM sucrose, 1 mM EGTA, 20 mM MOPS, pH 7.4, and 1 mg/mL BSA) before cell disruption with a Dounce homogenizer. The suspension was centrifuged twice at 500× g for 5 min and the resulting supernatant at 10,000×g for 10 min at 4° C. The pellet was re-suspended in buffer B (300 mM sucrose, 1 mM EGTA, 20 mM MOPS pH 7.4, 1 mg/mL BSA), and the homogenate was layered on a two-phase (25% and 40%) percoll density gradient. […]

[2] = test system: truncated AIF (tAIF, 57 kDa); assay: Immunoblot of truncated AIF in ISO/Ca2+-treated ES-CMs (chronic CAPN1 inhibition); format: cell-based, mouse; settings: Dsg2^mut/mut ES-CMs, 7 days 50 μM ISO/1 μM Ca2+, calpeptin pretreatment
Experimental: Mouse embryonic stem cells (ESs) were maintained and differentiated, and the absence of mycoplasma contamination was confirmed prior to experimental studies. Briefly, mouse ESs from both WT and Dsg2^mut/mut mice were derived from E3.5 embryos and maintained on gelatin-coated dishes in maintenance medium (Glasgow minimum essential medium supplemented with 10% fetal bovine serum and 3 μM Chir99021 and 1 μM PD98059 or 1000 U/ml ESGRO; Millipore), Glutamax, sodium pyruvate, and MEM non-essential amino acids (Thermo Fisher Scientific). For cardiomyocyte (CM) differentiation, ESs were plated in IMDM/Ham's F12 (Cellgro, at 3:1) supplemented with N2, B27, penicillin/streptomycin, 2 mM GlutaMAX, 0.05% BSA, 5 ng/ml L-ascorbic acid (Sigma-Aldrich), and α-monothioglycerol (MTG; Sigma-Aldrich) at a final density of 100,000 cells/ml to allow spheroid formation. After 48 hours, embryoid bodies were collected and transferred to ultra-low attachment plastic surface and induced for 40 hours with Activin A and Bmp4 (R&D Systems). Cells were then dissociated and plated as monolayers for 48 hours in the presence of 10 μM XAV to allow cardiomyocyte differentiation. The resulting ES-CMs were cultured 45 days before experimental procedures were performed.

CAPN1 [3] = biological target: T1, CAPN1; assay: Calpain activity assay (Suc-LLVY-AMC cleavage) in HL-1 cells under Ca2+ overload; format: cell-based; settings: Calcimycin 1 μM in HBS KV medium, dose-dependent response
Experimental: Calcium (Ca^2+) Overload Protocol: Rapid and sustained intracellular Ca^2+ overload was obtained by adding the Ca^2+-ionophore, calcimycin (1 μM), to HL-1 cells incubated for 10 min in HBS KV medium (1.26 mM CaCl2, 0.81 mM MgSO4, 0.44 mM KH2PO4, 142 mM KCl, 0.27 mM K2HPO4, 5.55 mM D-glucose, 1 mM Na3VO4, 20 mM Hepes pH 7.4). To monitor intracellular Ca^2+ variations, HL-1 cells were loaded with 5 μM Fluo-4 FF AM (Molecular Probes) in HBS Na (Sigma) for 30 min before the media was replaced with HBS KV. […] Calpain (CAPN) Activity Assay: […] HL-1 cells were grown in 24-well plates and incubated for 30 min in HBS Na (Sigma) with 25 μM Suc-LLVY-AMC (SEQ ID NO: 81) and 0.01% pluronic F127 (Molecular Probes) before treatment protocols. […] CAPN activity was inhibited via the addition of either calpeptin (Tocris) or PD150606 (Calbiochem) in the incubation medium.

mitochondrial CAPN1 translocation (CAPN1 [1]): failed to prevent | reduction in Ca2+ overload-induced CAPN1 substrate hydrolysis (CAPN1 [3]): ~75%
SMILES: CCCC[C@@H](C=O)NC(=O)[C@H](CC(C)C)NC(=O)OCc1ccccc1 [calpeptin]
levels of tAIF (57 kDa) [2]: significantly lowered
